Laboratory results reported in US20240116985A1, “STAPLED PEPTIDES AND METHODS THEREOF” (priority 2020, published 2024).
Like-named read-outs stand apart in the source and are kept apart here.

How the values were obtained:
[1] = target: T1, beta-catenin/TCF4 engagement (Homo sapiens, UniProt P35222); test: Nano-BRET target engagement assay (B-cat-Halo & TCF4-Luc in HEK293 cells); format: cell-based; details: read-out: NanoBRET Abs IC50
T1 construct: expressed in transfected cells; host or cells: HEK293
T1 sequence (P35222 1-781): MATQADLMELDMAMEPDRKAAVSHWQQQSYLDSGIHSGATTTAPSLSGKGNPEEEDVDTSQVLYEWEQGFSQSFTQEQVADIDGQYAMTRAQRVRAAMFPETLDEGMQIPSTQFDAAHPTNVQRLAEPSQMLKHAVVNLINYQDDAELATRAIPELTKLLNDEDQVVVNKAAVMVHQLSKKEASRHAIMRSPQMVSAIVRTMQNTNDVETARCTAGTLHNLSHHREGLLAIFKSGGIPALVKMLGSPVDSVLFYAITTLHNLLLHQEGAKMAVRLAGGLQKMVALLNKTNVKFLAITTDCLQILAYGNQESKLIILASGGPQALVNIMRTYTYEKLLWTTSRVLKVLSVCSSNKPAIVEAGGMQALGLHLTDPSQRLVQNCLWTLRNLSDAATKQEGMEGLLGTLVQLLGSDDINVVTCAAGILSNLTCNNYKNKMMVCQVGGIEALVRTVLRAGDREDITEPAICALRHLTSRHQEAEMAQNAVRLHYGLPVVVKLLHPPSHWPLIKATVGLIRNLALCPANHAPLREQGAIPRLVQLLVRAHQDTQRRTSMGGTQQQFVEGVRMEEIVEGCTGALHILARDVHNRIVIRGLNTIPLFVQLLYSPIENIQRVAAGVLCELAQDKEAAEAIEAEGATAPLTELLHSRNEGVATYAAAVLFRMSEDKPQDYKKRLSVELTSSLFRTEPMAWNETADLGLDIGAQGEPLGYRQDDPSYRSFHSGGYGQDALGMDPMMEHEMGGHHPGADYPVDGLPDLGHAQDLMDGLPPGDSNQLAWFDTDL

[2] = target: T2, full-length beta-Catenin (Uniprot ID P35222) (Homo sapiens, UniProt P35222); test: Fluorescence polarization IC50 (beta-catenin / 5FAM-TCF4 10-53 competition); format: binding; details: fluorescence polarization; read-out: beta-Catenin FP IC50
T2 construct: 10 nM full-length beta-Catenin (Uniprot ID P35222)
T2 sequence (P35222 1-781): T1 sequence (P35222 1-781)

SMILES | IC50 ([1]; absolute IC50) [nM] | IC50 [2] [nM] | IC50 [1] [nM]
CC(=O)N1CCC[C@]12CC=CCCCC1(CCCC=CCCCCCC[C@@](C)(C(=O)N[C@@H](Cc3cccs3)C(=O)N[C@@H](Cc3csc4ccccc34)C(=O)N[C@H](CO)[C@@H](C)O)NC(=O)[C@H](CCO)NC(=O)[C@H](Cc3ccccc3)NC(=O)[C@H](C)NC(=O)[C@H](C)NC(=O)[C@H](CC(=O)O)NC(=O)[C@H](CC(=O)O)NC1=O)NC(=O)[C@H](CC(C)(C)C)NC(=O)[C@H](CC(=O)O)NC2=O (stereo partly drawn) [I-1393, Ac-PL3-Asp-Npg-B5-Asp-Asp-Ala-Ala-Phe-Hse-S8-2Thi-BztA-Thro1] | 18600 | 34 | –
CC(=O)N1CCC[C@]12CC=CCCCC1(CCCC=CCCCOC(=O)N3CC[C@@](C(=O)N[C@@H](Cc4ccsc4)C(=O)N[C@@H](Cc4csc5ccccc45)C(=O)N[C@@H](CCC(N)=O)C(N)=O)(C3)NC(=O)[C@H](CC(C)C)NC(=O)C(Cc3cccc(C(=O)Oc4ccccc4)c3)NC(=O)[C@H](C)NC(=O)[C@H](C)NC(=O)[C@H](CN(CC(=O)O)CC(F)(F)F)NC(=O)[C@H](CC(=O)O)NC1=O)NC(=O)[C@H](CC(C)(C)C)NC(=O)[C@H](CC(=O)O)NC2=O (single isomer, unassigned) [I-2151, Ac-PL3-Asp-Npg-B5-Asp-TfeGA-Ala-Ala-3CO2PhF-Leu-PyrS2-3Thi-BztA-Gln-NH2] | – | 58 | 14600
CCN(CC[C@@H]1NC(=O)[C@H](CC(=O)O)NC(=O)C2(CCCC=CCCCOC(=O)N3CC[C@@](C(=O)N[C@@H](Cc4ccsc4)C(=O)N[C@@H](Cc4csc5ccccc45)C(=O)N[C@@H](CCC(N)=O)C(N)=O)(C3)NC(=O)[C@H](CC(C)C)NC(=O)[C@H](Cc3ccccc3)NC(=O)[C@H](C)NC(=O)[C@H](C)NC1=O)CCCC=CC[C@]1(CCCN1C(C)=O)C(=O)N[C@@H](CC(=O)O)C(=O)N[C@@H](CC(C)(C)C)C(=O)N2)CC(=O)O (stereo partly drawn) [I-1835, Ac-PL3-Asp-Npg-B5-Asp-[Et]GAbu-Ala-Ala-Phe-Leu-PyrS2-3Thi-BztA-Gln-NH2] | 31900 | 34 | –
CCCC[C@@H]1NC(=O)[C@H](CC(=O)O)NC(=O)[C@]2(CC=CCCCC3(CCCC=CCCCCCC[C@@](C)(C(=O)N[C@@H](Cc4ccccc4)C(=O)N[C@@H](Cc4csc5ccccc45)C(=O)N[C@@H](CCC(N)=O)C(N)=O)NC(=O)[C@H](CCC(N)=O)NC(=O)[C@H](Cc4ccccc4)NC(=O)[C@H](C)NC(=O)[C@H](C)NC(=O)[C@H](CCC(=O)O)NC(=O)[C@H](CC(=O)O)NC3=O)NC1=O)CCCN2C(C)=O (stereo partly drawn) [I-1522, Ac-PL3-Asp-nLeu-B5-Asp-Glu-Ala-Ala-Phe-Gln-S8-Phe-BztA-Gln-NH2] | 5800 | 6 | –
CC(=O)N1CCC[C@]12CC=CCCCC1(CCCC=CCCCOC(=O)N3CC[C@@](C(=O)N[C@@H](Cc4ccccc4Cl)C(=O)N[C@@H](Cc4csc5ccccc45)C(=O)N[C@@H](CC(C)C)C(N)=O)(C3)NC(=O)[C@H](CC(C)C)NC(=O)[C@H](Cc3ccccc3)NC(=O)[C@H](C)NC(=O)[C@H](CCCCNC(C)C)NC(=O)[C@H](CC(=O)O)NC(=O)[C@H](CC(=O)O)NC1=O)NC(=O)[C@H](CC(C)(C)C)NC(=O)[C@H](CC(=O)O)NC2=O (stereo partly drawn) [I-1277, Ac-PL3-Asp-Npg-B5-Asp-Asp-iPrLys-Ala-Phe-Leu-PyrS2-2C1F-BztA-Leu-NH2] | > 20000 | 17 | –
CCCC[C@@H]1NC(=O)[C@H](CC(=O)O)NC(=O)[C@]2(CC=CCCCC3(CCCC=CCCCCCC[C@@](C)(C(=O)N[C@@H](Cc4ccccc4)C(=O)N[C@@H](Cc4csc5ccccc45)C(=O)N[C@@H](CCC(N)=O)C(N)=O)NC(=O)[C@H](CCO)NC(=O)[C@H](Cc4ccccc4)NC(=O)[C@H](C)NC(=O)[C@H](C)NC(=O)[C@H](CCC(=O)O)NC(=O)[C@H](CC(=O)O)NC3=O)NC1=O)CCCN2C(C)=O (stereo partly drawn) [I-1525, Ac-PL3-Asp-nLeu-B5-Asp-Glu-Ala-Ala-Phe-Hse-S8-Phe-BztA-Gln-NH2] | 10800 | 22 | –

More lines, main results first:

IC50 ([1]; absolute IC50) [nM] | IC50 [2] [nM] | SMILES | IC50 [1] [nM]
> 20000 | 22 | CC(=O)N1CCC[C@]12CC=CCCCC1(CCCC=CCCCOC(=O)N3CC[C@@](C(=O)N[C@@H](Cc4ccsc4)C(=O)N[C@@H](Cc4csc5ccccc45)C(=O)N[C@@H](CCC(N)=O)C(N)=O)(C3)NC(=O)[C@H](CC(C)C)NC(=O)[C@H](Cc3ccccc3)NC(=O)[C@H](C)NC(=O)[C@H](C)NC(=O)[C@H](CN(CC(=O)O)C(=O)CCN(C)C)NC(=O)[C@H](CC(=O)O)NC1=O)NC(=O)[C@H](CC(C)(C)C)NC(=O)[C@H](CC(=O)O)NC2=O (stereo partly drawn) [I-2234, Ac-PL3-Asp-Npg-B5-Asp-[Me2NPr]GA-Ala-Ala-Phe-Leu-PyrS2-3Thi-BztA-Gln-NH2] | –
– | 11 | CC(=O)N1CCC[C@]12CC=CCCCC1(CCCC=CCCCOC(=O)N3CC[C@@](C(=O)N[C@@H](Cc4ccsc4)C(=O)N[C@@H](Cc4csc5ccccc45)C(=O)N[C@@H](CO)C(N)=O)(C3)NC(=O)[C@H](CC(C)C)NC(=O)[C@H](Cc3ccccc3)NC(=O)[C@H](C)NC(=O)[C@H](C)NC(=O)[C@H](Cc3ccc(F)c(C(=O)O)c3)NC(=O)[C@H](CC(=O)O)NC1=O)NC(=O)[C@H](CC(C)(C)C)NC(=O)[C@H](CC(=O)O)NC2=O (stereo partly drawn) [I-2202, Ac-PL3-Asp-Npg-B5-Asp-4F3COOHF-Ala-Ala-Phe-Leu-PyrS2-3Thi-BztA-Ser-NH2] | 5000
8900 | 18 | CC(=O)N1CCC[C@]12CC=CCCCC1(CCCC=CCCCOC(=O)N3CC[C@@](C(=O)N[C@@H](Cc4ccsc4)C(=O)N[C@@H](Cc4ccc5ccccc5c4)C(=O)N[C@@H](C)C(N)=O)(C3)NC(=O)[C@H](C(C)C)NC(=O)[C@H](Cc3ccccc3)NC(=O)[C@H](C)NC(=O)[C@H](CCC(N)=O)NC(=O)[C@H](Cc3cccc(C(=O)O)c3)NC(=O)[C@H](CC(=O)O)NC1=O)NC(=O)[C@H](CC(C)(C)C)NC(=O)[C@H](CC(=O)O)NC2=O (stereo partly drawn) [I-2310, Ac-PL3-Asp-Npg-B5-Asp-3COOHF-Gln-Ala-Phe-Val-PyrS2-3Thi-2NapA-Ala-NH2] | –
3700 | 11 | CC(=O)N1CCC[C@]12CC=CCCCC1(CCCC=CCCCOC(=O)N3CC[C@@](C(=O)N[C@@H](Cc4ccccc4C(F)(F)F)C(=O)N[C@@H](Cc4csc5ccccc45)C(=O)N[C@@H](CCC(=O)N(C)C)C(N)=O)(C3)NC(=O)[C@H](CCC(=O)N(C)C)NC(=O)[C@H](Cc3ccccc3)NC(=O)[C@H](C)NC(=O)[C@H](C)NC(=O)[C@H](Cc3cccc(C(=O)O)c3)NC(=O)[C@H](CC(=O)O)NC1=O)NC(=O)[C@H](CC(C)(C)C)NC(=O)[C@H](CC(=O)O)NC2=O (stereo partly drawn) [I-2535, Ac-PL3-Asp-Npg-B5-Asp-3COOHF-Ala-Ala-Phe-Me2Gln-PyrS2-2F3MeF-BztA-Me2Gln-NH2] | –
> 20000 | 5 | CC(=O)N1CCC[C@]12CC=CCCCC1(CCCC=CCCCOC(=O)N3CC[C@@](C(=O)N[C@@H](Cc4ccsc4)C(=O)N[C@@H](Cc4csc5ccccc45)C(=O)N[C@@H](CCC(N)=O)C(N)=O)(C3)NC(=O)[C@H](CC(C)C)NC(=O)[C@H](Cc3ccccc3)NC(=O)[C@H](C)NC(=O)[C@H](C)NC(=O)[C@H](CN(CC(=O)O)C(=O)CN3CCN(C)CC3)NC(=O)[C@H](CC(=O)O)NC1=O)NC(=O)[C@H](CC(C)(C)C)NC(=O)[C@H](CC(=O)O)NC2=O (stereo partly drawn) [I-2240, Ac-PL3-Asp-Npg-B5-Asp-[MePipAc]GA-Ala-Ala-Phe-Leu-PyrS2-3Thi-BztA-Gln-NH2] | –
